ChEMBL document CHEMBL5131426, “Novel hydrazone derivatives of N-amino-11-azaartemisinin with high order of antimalarial activity against multidrug-resistant Plasmodium yoelii nigeriensis in Swiss mice via intramuscular route” (Bioorg Med Chem Lett, 2022)

Assays:
[1] = Toxicity in Swiss mouse infected with multidrug-resistant Plasmodium yoelii nigeriensis assessed as animal survival at 12 mg/kg, po for 4 days measured on day 28; type: organism-based; conditions: in vivo, 96 h, time 4 day
[2] = system: Plasmodium yoelii nigeriensis; assay: Antimalarial activity against multidrug-resistant Plasmodium yoelii nigeriensis infected in Swiss mouse assessed as inhibition of parasitemia at 12 mg/kg, po for 4 days measured on day 4 relative to control; type: functional; conditions: 96 h, time 4 day
[3] = system: Plasmodium yoelii nigeriensis; assay: Antimalarial activity against multidrug-resistant Plasmodium yoelii nigeriensis infected in Swiss mouse assessed as inhibition of parasitemia at 6 mg/kg, po for 4 days measured on day 4 relative to control; type: functional; conditions: 96 h, time 4 day
[4] = Toxicity in Swiss mouse infected with multidrug-resistant Plasmodium yoelii nigeriensis assessed as animal dead at 3 mg/kg, IM for 4 days measured on day 28; type: organism-based; conditions: in vivo, 96 h, time 4 day
[5] = Toxicity in Swiss mouse infected with multidrug-resistant Plasmodium yoelii nigeriensis assessed as animal dead at 6 mg/kg, po for 4 days measured on day 28; type: organism-based; conditions: in vivo, 96 h, time 4 day
[6] = system: Plasmodium yoelii nigeriensis; assay: Antimalarial activity against multidrug-resistant Plasmodium yoelii nigeriensis infected in Swiss mouse assessed as inhibition of parasitemia at 24 mg/kg, po for 4 days measured on day 4 relative to control; type: functional; conditions: 96 h, time 4 day
[7] = Toxicity in Swiss mouse infected with multidrug-resistant Plasmodium yoelii nigeriensis assessed as animal survival at 24 mg/kg, po for 4 days measured on day 28; type: organism-based; conditions: in vivo, time 4 day; for Activity: po, 24 mg/kg, 96 h
[8] = system: Plasmodium yoelii nigeriensis; assay: Antimalarial activity against multidrug-resistant Plasmodium yoelii nigeriensis infected in Swiss mouse assessed as inhibition of parasitemia at 3 mg/kg, IM for 4 days measured on day 4 relative to control; type: functional; conditions: 96 h, time 4 day
[9] = system: Plasmodium yoelii nigeriensis; assay: Antimalarial activity against multidrug-resistant Plasmodium yoelii nigeriensis infected in Swiss mouse assessed as inhibition of parasitemia at 12 mg/kg, IM for 4 days measured on day 4 relative to control; type: functional; conditions: 96 h, time 4 day
[10] = Toxicity in Swiss mouse infected with multidrug-resistant Plasmodium yoelii nigeriensis assessed as animal survival at 12 mg/kg, IM for 4 days measured on day 28; type: organism-based; conditions: in vivo, time 4 day; for survival at 96 h: Swiss, read-out: Activity
[11] = Toxicity in Swiss mouse infected with multidrug-resistant Plasmodium yoelii nigeriensis assessed as animal survival at 6 mg/kg, IM for 4 days measured on day 28; type: organism-based; conditions: in vivo, time 4 day
[12] = system: Plasmodium yoelii nigeriensis; assay: Antimalarial activity against multidrug-resistant Plasmodium yoelii nigeriensis infected in Swiss mouse assessed as inhibition of parasitemia at 6 mg/kg, IM for 4 days measured on day 4 relative to control; type: functional; conditions: 96 h, time 4 day
[13] = Toxicity in Swiss mouse infected with multidrug-resistant Plasmodium yoelii nigeriensis assessed as animal dead at 24 mg/kg, po for 4 days measured on day 28; type: organism-based; conditions: in vivo, 96 h, time 4 day
[14] = Toxicity in Swiss mouse infected with multidrug-resistant Plasmodium yoelii nigeriensis assessed as animal dead at 12 mg/kg, po for 4 days measured on day 28; type: organism-based; conditions: in vivo, 96 h, time 4 day
[15] = system: Plasmodium yoelii nigeriensis; assay: Antimalarial activity against multidrug-resistant Plasmodium yoelii nigeriensis infected in Swiss mouse assessed as inhibition of parasitemia at 24 mg/kg, IM for 4 days measured on day 4 relative to control; type: functional; conditions: 96 h, time 4 day
[16] = system: Plasmodium yoelii nigeriensis; assay: Antimalarial activity against multidrug-resistant Plasmodium yoelii nigeriensis infected in Swiss mouse assessed as inhibition of parasitemia at 48 mg/kg, IM for 4 days measured on day 4 relative to control; type: functional; conditions: 96 h, time 4 day
[17] = Toxicity in Swiss mouse infected with multidrug-resistant Plasmodium yoelii nigeriensis assessed as animal dead at 48 mg/kg, po for 4 days measured on day 28; type: organism-based; conditions: in vivo, 96 h, time 4 day
[18] = system: Plasmodium yoelii nigeriensis; assay: Antimalarial activity against multidrug-resistant Plasmodium yoelii nigeriensis infected in Swiss mouse assessed as inhibition of parasitemia at 48 mg/kg, po for 4 days measured on day 4 relative to control; type: functional; conditions: 96 h, time 4 day
[19] = Toxicity in Swiss mouse infected with multidrug-resistant Plasmodium yoelii nigeriensis assessed as animal survival at 48 mg/kg, IM for 4 days measured on day 28; type: organism-based; conditions: in vivo, 96 h, time 4 day
[20] = Toxicity in Swiss mouse infected with multidrug-resistant Plasmodium yoelii nigeriensis assessed as animal dead at 12 mg/kg, IM for 4 days measured on day 28; type: organism-based; conditions: in vivo, 96 h, time 4 day
[21] = Toxicity in Swiss mouse infected with multidrug-resistant Plasmodium yoelii nigeriensis assessed as animal survival at 24 mg/kg, IM for 4 days measured on day 28; type: organism-based; conditions: in vivo, time 4 day, read-out: Activity

| SMILES | inhibition in vivo at 24 mg/kg [6] | inhibition in vivo at 12 mg/kg [9] | survival at 96 h [10] | also measured |
| --- | --- | --- | --- | --- |
| C[C@@H]1CC[C@H]2[C@@H](C)C(=O)N(N=C3c4ccccc4-c4ccccc43)[C@@H]3O[C@@]4(C)CC[C@@H]1[C@@]23OO4 | 100% | 100% | – | Activity [1]: Non-Toxic; inhibition in vivo at 12 mg/kg [2]: 100%; inhibition in vivo at 6 mg/kg [3]: 98%; Activity [4]: Toxic; Activity [5]: Toxic; Activity [7]: Non-Toxic; inhibition in vivo at 3 mg/kg [8]: 38%; Activity ([10]; im, 12 mg/kg, 96 h): Non-Toxic; Activity ([11]; im, 6 mg/kg, 96 h): Non-Toxic |
| C[C@@H]1CC[C@H]2[C@@H](C)C(=O)N(N=C3CCCC3)[C@@H]3O[C@@]4(C)CC[C@@H]1[C@@]23OO4 | 100% | 100% | – | inhibition in vivo at 6 mg/kg [12]: 100%; Activity [7]: Non-Toxic; Activity [13]: Toxic; survival at 96 h ([11]; Swiss, read-out: Activity): 80% |
| C[C@@H]1CC[C@H]2[C@@H](C)C(=O)N(N=C3CCCCC3)[C@@H]3O[C@@]4(C)CC[C@@H]1[C@@]23OO4 | 100% | 100% | 40% | – |
| COc1ccc(/C=N/N2C(=O)[C@H](C)[C@@H]3CC[C@@H](C)[C@@H]4CC[C@@]5(C)OO[C@]43[C@H]2O5)cc1 | 100% | 100% | 60% | inhibition in vivo at 12 mg/kg [2]: 100%; Activity [7]: Non-Toxic; Activity [14]: Toxic |
| C[C@@H]1CC[C@H]2[C@@H](C)C(=O)O[C@@H]3O[C@@]4(C)CC[C@@H]1[C@]32OO4 [ARTEMISININ] | – | – | – | inhibition in vivo at 24 mg/kg [15]: 100%; inhibition in vivo at 48 mg/kg [16]: 100%; Activity [17]: Toxic; inhibition in vivo at 48 mg/kg [18]: 100%; Activity [19]: Non-Toxic |
| C[C@@H]1CC[C@H]2[C@@H](C)C(=O)N(/N=C/c3cccc([N+](=O)[O-])c3)[C@@H]3O[C@@]4(C)CC[C@@H]1[C@@]23OO4 | 100% | 100% | – | Activity [20]: Toxic |
| C[C@@H]1CC[C@H]2[C@@H](C)C(=O)N(/N=C/c3ccco3)[C@@H]3O[C@@]4(C)CC[C@@H]1[C@@]23OO4 | 100% | 100% | 80% | survival at 96 h ([7]; Swiss, read-out: Activity): 80% |
| CC(C)=NN1C(=O)[C@H](C)[C@@H]2CC[C@@H](C)[C@@H]3CC[C@@]4(C)OO[C@]32[C@H]1O4 | 100% | 100% | – | – |
| C[C@@H]1CC[C@H]2[C@@H](C)C(=O)N(/N=C/c3ccc(Br)cc3)[C@@H]3O[C@@]4(C)CC[C@@H]1[C@@]23OO4 | 100% | 100% | 60% | – |
| C[C@@H]1CC[C@H]2[C@@H](C)C(=O)N(N)[C@@H]3O[C@@]4(C)CC[C@@H]1[C@@]23OO4 | 100% | 100% | – | Activity [20]: Toxic |
| C[C@@H]1CC[C@H]2[C@@H](C)C(=O)N(/N=C/c3cccs3)[C@@H]3O[C@@]4(C)CC[C@@H]1[C@@]23OO4 | 100% | 100% | – | inhibition in vivo at 12 mg/kg [2]: 100% |
| C[C@@H]1CC[C@H]2[C@@H](C)C(=O)N(/N=C/c3ccc[nH]3)[C@@H]3O[C@@]4(C)CC[C@@H]1[C@@]23OO4 | 100% | 100% | – | survival at 96 h [21]: 40% |
| C[C@@H]1CC[C@H]2[C@@H](C)C(=O)N(/N=C/c3ccccc3O)[C@@H]3O[C@@]4(C)CC[C@@H]1[C@@]23OO4 | 100% | 100% | 40% | – |
| C[C@@H]1CC[C@H]2[C@@H](C)C(=O)N(N=C3C4CC5CC(C4)CC3C5)[C@@H]3O[C@@]4(C)CC[C@@H]1[C@@]23OO4 | 100% | 100% | 20% | – |
